Source: PMC4912613, “A broad analysis of resistance development in the malaria parasite” (Nature Communications, 2016)

Legend:
[1] = tested on: GNF449-R2 (PfATP4 I203L and P990R, parent Dd2); test: Cross-resistance EC50 assay, GNF449-R2; format: cell-based; settings: Plasmodium falciparum, SYBR green 72 hour assay, asynchronized parasites, 96-well or 1536-well format
From the text: (§1) To evaluate potential overlapping activity against known antimalarial drug targets, we performed dose-response studies with each compound against our assembled set of drug-resistant lines and their corresponding parents, in an asexual blood stage proliferation assay (Table 1). Comparisons were made to the drug-sensitive strain 3D7 when a parent was unavailable (TM90C2A, W2 and Dd2). As laboratories conducted EC50 assays with different strains and protocols, all comparisons were made between assays from the same laboratory and under the same assay conditions. Compounds displaying >5-fold EC50 shifts relative to the parent or sensitive strain were flagged as having potentially non-novel targets. Average fold shifts per strain ranged from 0.82 to 2.34, with a median of 1.23 indicating there was not common resistance to any one resistant clone. No resistance patterns were observed when classifying the compounds based on chemical structure, but this was not surprising given the diversity of compounds chosen. On the other hand, given that these confirmed compounds were derived from larger unconfirmed hit lists to which some filtration criteria may have been applied (for example, elimination of obvious dihydrofolate reductase inhibitors[32]), some[10][11][12][13] pre-existing bias may exist in the set. […]
(§2) Alternatively, a SYBR Green-based proliferation approach was used for the 72-h assay, as previously described. Briefly, a culture of either synchronized or asynchronous parasitized RBCs (0.3% parasitemia and 4% haematocrit) in screening medium (identical to supplemented medium above except no serum was added) was exposed to serial drug dilutions. Plates were incubated at 37 °C and gassed with 93% N2, 4% CO2 and 3% O2 for 72 h. Following incubation, 10 × SYBR Green I (Invitrogen; supplied in 10,000 × concentration) in lysis buffer ([…], 5 mM EDTA, 0.16% Saponin wt per vol and 1.6% Triton X vol per vol) was added to the wells and the plates were incubated overnight at room temperature before plate reading. EC50 assays were repeated three times, taking the average EC50 value from each assay set, and removing any outliers using a single iteration of Grubbs' test, eliminating values with z-scores above the critical z-value (α=0.05). The raw EC50 values for synchronized parasites assayed in a 384-well format are listed in Supplementary Data 4. The raw EC50 values for asynchronous parasites assayed in a 96 or 1536-well format are listed in Supplementary Data 5.
(§3) EC50 values for each strain were compared with those of the corresponding parent strain to determine fold-shift changes and identify resistance. To minimize the cause variance between assays, all comparisons were conducted between strains assayed under identical conditions. A one-way ANOVA followed by a Dunnet's post-test was conducted in GraphPad Prism to identify significant changes between the parent and resistant strain.

[2] = tested on: HepG2; test: Hepatocyte toxicity; format: cell-based, human; settings: for Hepatocyte Toxicity: HepG2; for EC50 fold shift compared to asexual stage: Hepatocyte Toxicity: hepatocyte toxicity / 3D7 EC50; for Liver Stage / Hepatocyte Toxicity: toxicity fold shift for the liver stage (hepatocyte toxicity vs liver stage EC50)
From the text: As drugs that eliminate multiple stages of the parasite lifecycle will be critical components in global efforts to eliminate malaria, we were interested in knowing whether the compounds in our study had additional activities against either the liver and/or transmission stages of the parasite lifecycle. To determine this, we first evaluated the compounds in additional phenotypic assays. The first assay was a P. berghei hepatocyte invasion and development assay, which predicts causal prophylactic activity. Hepatocyte toxicity was additionally tested to identify false-positive activity in the liver stage due to host-cell toxicity. Assays were executed in duplicate using a 12-point EC50 curve at starting concentrations of 5 μM or 50 μM (Supplementary Table 1).
Liver-stage activity was determined by pretreating hepatic human cells (HepG2) for 2 h with compound in 1,536-well plates infected with freshly dissected P. berghei sporozoites. After 48 h of incubation, the viability of P. berghei exoerythrocytic forms was measured by luminescence reaction light output using BrightGlo (Promega). Varying levels of compound concentration were used (5 μM or 50 μM) due to the stock concentration supplied.

[3] = tested on: ATQ-R5 (cytb F267V, parent 3D7); test: Cross-resistance EC50 assay, ATQ-R5; format: cell-based, Plasmodium falciparum; settings: for EC50: Plasmodium falciparum, 3D7, SYBR green 72 hour assay, asynchronized parasites, 96-well or 1536-well format, ATQ-R5
From the text: as §1, §2, §3

[4] = tested on: CYTb-G131S (cytb G131S, parent Dd2); test: Cross-resistance EC50 assay, CYTb-G131S; format: cell-based, Plasmodium falciparum; settings: for EC50: Plasmodium falciparum, SYBR green 72 hour assay, synchronized parasites, 384-well format
From the text: as §1, §2, §3

[5] = tested on: P. falciparum 3D7, Dd2, Dd2Δexo; test: In vitro evolution of compound-resistant lines (selection); format: cell-based, Plasmodium falciparum; settings: for # of Resistant Strains Generated: resistant cultures out of three independent cultures; for EC50 fold shifts observed: selected parasites vs selection parent
From the text: While we found an overall lack of pre-existing resistance, analysing the onset of resistance was critical, as compounds resulting in rapid resistance are not ideal for clinical development. We therefore sought to create drug-resistant parasites using a variety of different selection methods. We implemented either a high-dose method or a ramp-up/pulse method for our in vitro selections. Two of the 50 compounds—MMV028895 and MMV665824—were removed from the selection study during experimentation. […] Out of the remaining 48 compounds, resistant parasites were obtained for 23 (Supplementary Data 1). As each selection was performed in triplicate with three independent cultures, we succeeded in generating a total of 66 resistant cultures. Parasites resistant to MMV026596 were not obtained despite 100 days of selection, but the cultures acquired hypersensitivity to mefloquine with a 10-fold reduction in EC50 compared with its parental line, 3D7. For the remaining 24 compounds, acquisition of resistant parasites was unsuccessful despite numerous attempts over an extensive period of time.
Based on the compound speed of action and lab specialty, selections were conducted using a high-pressure intermittent selection method, a step-wise selection method, or a constant selection method. For high-pressure selections, ∼1–2 × 10^9 parasites were treated at a concentration of 3–10 × EC50 until parasites could not be seen by microscopy (4–10 days). Following treatment, compound pressure was removed and cultures were allowed to recover. Once healthy parasites were seen and parasitemia reached ∼2%, compound pressure was reinstated. For step-wise selections, ∼1 × 10^8 parasites were treated at a starting concentration resulting in a reduced growth rate of 50%. Cultures were examined daily by microscopy, increasing compound concentration in increments of 5–10% as needed to maintain a 50% reduced growth rate. Selections were carried out until cultures achieved a reproducible EC50 fold shift of >3 × . Finally, constant selections were conducted in a similar manner to the high-pressure intermittent method with the exception that compound pressure was never removed. Following successful selection, cultures were cloned out using a limiting dilution method as previously described. Selections were terminated after 200 days if resistance could not be obtained.

SMILES	EC50 [1] [µM]	Hepatocyte Toxicity [2] [µM]	EC50 fold shift compared to asexual stage: Hepatocyte Toxicity [2]	Liver Stage / Hepatocyte Toxicity [2]	EC50 [3] [µM]	EC50 ([4]; strain CYTb:G131S (Dd2 parent)) [nM]	Time Length to Obtain Mutants ([5]; in vitro selection)	# of Resistant Strains Generated [5]	EC50 fold shifts observed [5]	fold change in EC50, CYTb-G131S vs parent ([4]; resistance, parent Dd2) [fold]	EC50 ([4]; DD2, CYTb:G131S strain) [nM]	acquisition of resistant parasites ([5]; in vitro selection)	resistance in ATQ-R5 vs parent ([3]; EC50 fold-shift under the threshold (5-fold))
COc1cc(-c2nc(-c3ccccc3)c(-c3ccccc3)[nH]2)cc(OC)c1O [MMV020750]	1.47	> 5	> 15	> 1	0.873	872	LONG (> 125 days)	0/3	no shift				
CN(C)S(=O)(=O)c1cc(-c2ccc3nccc(-c4cccc(S(N)(=O)=O)c4)c3c2)cnc1N [MMV024038]	1	0.1461	0.64	13.52	0.878	249	SHORT (0-50 days)	0/3	no shift				
COC(=O)c1ccc(C2C3=C(O)CC(c4ccc(F)cc4)CC3=Nc3ccccc3N2C(=O)c2ccccc2)cc1 (stereo not shown) [MMV011438]	0.552	> 50	> 116	> 80	0.34	336	LONG (> 125 days)	0/3	no shift				
Cc1c(C)n(Cc2ccc(F)cc2)c2ccc(C(=O)NCc3ccco3)cc12 [MMV008149]	1.36	> 5	> 6.5	> 5.6	1.58	> 5000	SHORT (0-50 days)	3/3		> 38			
Cc1ccc(S(=O)(=O)n2cc(-c3ccnc(N)c3)c3cc(Br)cnc32)cc1 [MMV024114]	3.34	9.39	35.43	1.58	1.72	1680	LONG (> 125 days)	3/3	2x				
COc1ccc(NC(=O)N2CCCCN3[C@H](CN)[C@H](c4ccc(C#Cc5ccccc5)cc4)[C@@H]3C2)cc1 [BRD1095]	0.00119	> 50	> 1250	> 605	0.002		SHORT (0-50 days)	3/3	4-100x		24		
CCN(CC)S(=O)(=O)c1ccc(-c2csc(Nc3ccc(C)c(C)c3)n2)cc1 [MMV009108]	1.01	> 5	> 5.3	> 1	2.35	494	SHORT (0-50 days)	3/3	9x				
COCCNCC(O)Cn1c2ccc(Cl)cc2c2cc(Cl)ccc21 (stereo not shown) [MMV019017]	0.636	> 5	> 10		0.842	929	LONG (> 125 days)	0/3	no shift				
Cc1cc(Nc2ccc(OCc3ccccc3)cc2)nc2cc(O)ccc12 [MMV007181]	0.153	7.952	22.98	1.66	0.088	245	LONG (> 125 days)	0/3	no shift				
CNCc1ccc2nc(-c3coc(Cc4cc(Cl)ccc4OCC(C)C)n3)[nH]c2c1.Cl.Cl [MMV026596]	0.307	13.42	38.79	2.07	0.376	443	LONG (> 125 days)	0/3	no shift			not obtained	
COc1ccccc1CNC(=O)CCn1c(=O)[nH]c2ccsc2c1=O [MMV019066]	0.008	> 5	> 3	> 15	0.023	149	SHORT (0-50 days)	3/3	>15x				Statistically significant resistance
Cc1ccc(Cn2c(N3CCC(C(=O)NCc4cccs4)CC3)nc3ccccc32)cc1 [MMV007564]	0.739	> 6.6	> 57	> 21	1.33	1300	SHORT (0-50 days)	3/3	7-12x				
COc1cc(-c2nc(-c3ccccc3)c(-c3ccccc3)[nH]2)ccc1OCCN(C)C [MMV027496]	2.33	13.49	121.53	4.25	0.302	322	LONG (> 125 days)	0/3	no shift				
